The text below walks through data of PMC6934184, “Selective DNA-PKcs inhibition extends the therapeutic index of localized radiotherapy and chemotherapy” (The Journal of Clinical Investigation, 2019).

For the assay, the target named is T1, PAK6 (Homo sapiens, UniProt Q9NQU5).
T1 construct: purchased Thermo Fisher Scientific (Life Technologies) SelectScreen
In words: SelectScreen Z'LYTE. It counts as biochemical. Summed up: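 Percent values come from Thermo SelectScreen profiling of NU5455, combining activity and binding assays. CSF1R was run in Z'LYTE format at Km app ATP, and CAMK1 in Adapta format with ATP listed at 10.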

T1 sequence (Q9NQU5 whole entry): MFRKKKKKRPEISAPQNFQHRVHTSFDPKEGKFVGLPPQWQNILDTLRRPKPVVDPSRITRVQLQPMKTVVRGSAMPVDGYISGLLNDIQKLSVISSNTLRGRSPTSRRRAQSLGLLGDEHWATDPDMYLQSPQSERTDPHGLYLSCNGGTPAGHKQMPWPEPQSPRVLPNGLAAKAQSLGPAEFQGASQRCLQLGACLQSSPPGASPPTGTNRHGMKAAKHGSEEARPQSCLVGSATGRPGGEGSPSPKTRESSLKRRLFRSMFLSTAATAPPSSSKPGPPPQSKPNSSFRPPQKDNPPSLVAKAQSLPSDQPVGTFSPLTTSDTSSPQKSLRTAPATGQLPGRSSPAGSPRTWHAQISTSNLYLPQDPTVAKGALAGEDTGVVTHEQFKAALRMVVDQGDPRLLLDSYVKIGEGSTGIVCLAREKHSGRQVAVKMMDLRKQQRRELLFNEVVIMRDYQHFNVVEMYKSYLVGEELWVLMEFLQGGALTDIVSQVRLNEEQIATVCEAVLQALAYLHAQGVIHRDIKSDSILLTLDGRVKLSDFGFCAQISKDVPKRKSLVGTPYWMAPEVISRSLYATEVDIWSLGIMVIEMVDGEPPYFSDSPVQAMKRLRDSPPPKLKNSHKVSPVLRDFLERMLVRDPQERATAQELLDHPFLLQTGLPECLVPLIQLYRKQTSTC

One may read the inhibition as the relative decrease from the control value, in per cent. Read a high inhibition as strong suppression. For `CN(C(=O)CN1CCOCC1)c1ccc2sc3c(-c4cccc5c(=O)cc(N6CC7CCC(C6)O7)oc45)cccc3c2c1` [NU5455], the inhibition at 1 µM is 3%.
